This experiment concerns the target T1, PTHR1 (Homo sapiens, UniProt Q03431).
T1 sequence (Q03431 27-593): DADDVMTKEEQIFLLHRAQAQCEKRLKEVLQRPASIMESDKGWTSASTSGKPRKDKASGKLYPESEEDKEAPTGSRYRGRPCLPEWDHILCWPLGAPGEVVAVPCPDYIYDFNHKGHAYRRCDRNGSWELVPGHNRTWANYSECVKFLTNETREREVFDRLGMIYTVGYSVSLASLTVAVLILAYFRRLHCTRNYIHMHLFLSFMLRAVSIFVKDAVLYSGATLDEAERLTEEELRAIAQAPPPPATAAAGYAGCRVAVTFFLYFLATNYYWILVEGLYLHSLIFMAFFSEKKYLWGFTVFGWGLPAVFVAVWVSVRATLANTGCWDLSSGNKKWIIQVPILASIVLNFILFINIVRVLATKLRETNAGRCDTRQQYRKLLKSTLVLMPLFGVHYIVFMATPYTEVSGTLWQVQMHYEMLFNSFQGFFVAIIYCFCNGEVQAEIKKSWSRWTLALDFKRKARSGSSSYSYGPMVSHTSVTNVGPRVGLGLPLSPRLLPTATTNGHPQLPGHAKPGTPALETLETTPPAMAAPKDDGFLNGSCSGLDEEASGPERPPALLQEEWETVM
Put plainly: cAMP accumulation assay (HTRF) in CHO-K1/Ga15/PTHR1 cells. It is filed as cell-based. Also noted: host or cells: CHO-K1 (recombinant line CHO-K1/Ga15/PTHR1). Particulars: for Emax: CHO-K1, cAMP assay, fitted dose-response maximum; for cAMP accumulation activity compared to control peptide: FIG. 3, PTH 1-34 positive control; for cAMP: relative to PTH [1-34], CHO-K1/Ga15/PTHR1 cells. The method, then: Cell suspension (5 μL) was seeded in 384-well plates at a density of 3,000 cells/well. Cells were treated with test samples (5 μL) or agonist (PTH 1-34) for 30 minutes at room temperature. cAMP-d2 working solution (5 μL) and anti-cAMP-Cryptate working solution (5 μL) were added to cells and incubated for 60 minutes at room temperature. The signal of the assay plate was read with PheraStar (BMG LABTECH, NC), an HTRF compatible reader.
A general note: Cyclic AMP is a second messenger, typically raised through Gs and lowered through Gi signalling.

Setting [1] is: cAMP accumulation, fitted curve slope, replicate plates.
[2] abbreviates: cAMP accumulation, replicate plates, read-out: −log10EC50 (converted).
The mark [3] stands for this setting: cAMP assay, fitted dose-response curve, read-out: −log10EC50 (converted).
Where [4] appears, read: cAMP assay, fitted dose-response slope.

Read-outs that look alike come from different tables or passages of the source. Where no end group is shown, it is not given here.

Turning to “AVAEIQLMHQRAKWKQELELEEKNKKILEDVY [Peptide R2-32]”, the “−log10Slope” value under setting [1] is given as −14.3219. Moreover, under setting [2], the EC50 was 0.312 µM.

The Emax is the greatest response seen or fitted, relative to the assay's reference. Consider “AVAEIQLMHQRAKWRAEYELREMLLRLLEEIF [Peptide R1-96]”, for which the Emax was 99.7%, the “cAMP accumulation activity compared to control peptide” value is reported as “activity similar to the control peptide” and the cAMP result was “+”. The EC50 under setting [3] is 0.00986 µM. Further, the “−log10Slope” value under setting [4] is −3.352.

Regarding “AVATIQLMTDIAKIRAEYELREMLLRLLEEIF [Peptide R2-6]”, the “−log10Slope” value under setting [1] is on record as −0.3341.

With “GIAVFTIMHLRIYLRAEYELREMLLRLLEEIF [Peptide R2-17]”, the “−log10Slope” value under setting [1] was −2.077. The EC50 under setting [2] is 448 µM.

“GIAVITIMIDYAKLRAEYELREMLLRLLEEIF [Peptide R2-22]”: the EC50 was 7.09e-05 µM, the “cAMP accumulation activity compared to control peptide” value is “increased activity as compared to the control peptide” and the cAMP entry was “++”. Also, the “−log10Slope” value under setting [1] is listed as 7.165.

Consider “GIAVLTILDLRAKLRAEYELREMLLRLLEEIF [Peptide R2-14]”, for which the EC50 was 5.21e-06 µM, the “cAMP accumulation activity compared to control peptide” value was “increased activity as compared to the control peptide” and the cAMP result was “++”. Besides, the “−log10Slope” value under setting [1] is 2.196.

On to “GLAALTIGLLRAKLRAEYELREMLLRLLEEIF [Peptide R2-24]”, for which the EC50 was 4.24e-05 µM, the “cAMP accumulation activity compared to control peptide” value was “increased activity as compared to the control peptide” and the cAMP entry is recorded as “++”. The “−log10Slope” value under setting [1] came to 5.587.

Take “GVAEIQLMHDIPVIRAEYELREMLLRLLEEIF [Peptide R2-3]”: the “−log10Slope” value under setting [1] is given as −8.5715. Under setting [2], the EC50 is 11.8 µM.

With “GVAEIQLMVDLDIIRAEYELREMLLRLLEEIF [Peptide R2-12]”, the “−log10Slope” value under setting [1] is −2.726. Further, the EC50 under setting [2] is 137 µM.

“GVAELQLMHDLAKIKLELELKVKLLEILKDVY [Peptide R2-49]”: the Emax was found to be 99.9%. Also, the EC50 under setting [3] is 1.62 µM. The “−log10Slope” value under setting [4] is reported as −5.638.

For the sequence “GVAELQLMHFRALLRAEYELREMLLRLLEEIF [Peptide R2-7]”, the “−log10Slope” value under setting [1] was −0.9597. Also, under setting [2], the EC50 was 26100 µM.

Turning to “GVALLQIVHDFAKIRAEYELREMLLRLLEEIF [Peptide R2-5]”, the “−log10Slope” value under setting [1] is reported as −4.972.

For “GVAMLQILHDKAKVRAEYELREMLLRLLEEIF [Peptide R2-11]”, the EC50 is 2.01 µM. The “−log10Slope” value under setting [1] was −11.3552.

Regarding “GVSMLQIMHDLAVIRAEYELREMLLRLLEEIF [Peptide R2-4]”, the “−log10Slope” value under setting [1] is −13.5432. Further, the EC50 under setting [2] was 1.36 µM.

Take “GVVMLQFMHDVAKIRAEYELREMLLRLLEEIF [Peptide R2-9]”: the “−log10Slope” value under setting [1] is listed as −0.02713.

“GVYAIQAMHDLAKIRAEYELREMLLRLLEEIF [Peptide R2-10]”: the “−log10Slope” value under setting [1] is −8.781. In addition, the EC50 under setting [2] is 32.5 µM.

Take “LILVEQLMDLRAYLRAEYELREMLLRLLEEIF [Peptide R2-16]”: under setting [1], the “−log10Slope” value was −8.301. Besides, under setting [2], the EC50 was 19.6 µM.

Consider “LILVKKIIDLRAYLRAEYELREMLLRLLEEIF [Peptide R2-21]”, for which the “−log10Slope” value under setting [1] is reported as −8.121. For the same sequence, the EC50 under setting [2] is 21.2 µM.

On to “PIPVKDIMDLRAYLRAEYELREMLLRLLEEIF [Peptide R2-19]”, for which the “−log10Slope” value under setting [1] was −5.2427. The EC50 under setting [2] was 20.5 µM.

On to “SIIGEQLMLLRALLRAEYELREMLLRLLEEIF [Peptide R2-18]”, for which the “−log10Slope” value under setting [1] is −1.186. The EC50 under setting [2] is 5940 µM.

As for “VDFEIQLMQQRAQWIADYRIREFLDKLIAEIF [Peptide R1-94]”, the maximal response (Emax) was found to be 90.8%, the “cAMP accumulation activity compared to control peptide” value was “increased activity as compared to the control peptide” and the cAMP entry is “++”. Also, the EC50 under setting [3] was 7.36e-05 µM. In addition, the “−log10Slope” value under setting [4] is −3.981.

The values above are taken from patent publication US12344649B2, “Modulators of parathyroid hormone receptor (PTHR1)” (Flagship Pioneering Innovations VI, LLC, priority 2019, dated 2025).
